Key:
α-glucosidase = test: In vitro α-glucosidase inhibitory assay (PNP-G substrate); type: biochemical; settings: for SI (selectivity index): SI = IC50(α-glucosidase)/IC50(α-amylase); for IC50: three independent experiments, acarbose positive control, read-out: IC50 Values (µM ± SD) α-Glucosidase
Protocol: (§1) The IC50 values (μM) represented in Table 3 were calculated from the log dose-inhibition curves and are expressed as means ± standard deviations (SD) of three independent experiments. […] Inhibitors of α-glucosidase with mild inhibitory activity against α-amylase, on the other hand, constitute one of the major therapeutic strategies for the treatment of T2DM.
All the tests and analyses were performed in triplicates following a literature method described in our previous study. The stock solutions of the test compounds (200 µM) were prepared in DMSO, followed by dilution with a 100 mM phosphate buffer to obtain the concentrations of 100 µM. […] The enzyme solution (0.48 u/mL α-glucosidase, 17 µL); phosphate buffer (100 mM, pH 6.8; 50 µL); and test sample in DMSO (17 µL) were incubated at 37 °C for 10 min. After pre-incubation, 17 µL of 2 mM p-nitrophenyl-α-d-glucopyranoside (PNP-G) was added to each of the wells containing reaction mixtures to initiate the reaction. The absorbance was measured at 405 nm using a Bio-Rad microplate reader. The IC50 concentration was calculated using the AAT Bioquest online calculator.

α-amylase = test: In vitro α-amylase inhibitory assay (CNP-G3 substrate); type: biochemical; settings: three independent experiments; acarbose positive control; read-out: IC50 Values (µM ± SD) α-Amylase
Protocol: as §1
The α-amylase inhibitory assay was performed in 96-well microplates using a final volume of 200 μL, following a procedure described in the literature study. The enzyme assay was performed with a phosphate buffer ([…]) containing 0.02% NaN3 and adjusted to pH 6.0 with 2.0 M phosphoric acid. […] The enzyme solution (2.0 u/mL α-amylase, 5 µL); phosphate buffer ([…], pH 6.0; 175 µL); and 10 µL test sample were incubated at 37 °C for 10 min. After pre-incubation, 10 µL of 10 mM of 2-chloro-4-nitrophenyl-α-D-maltotrioside (CNP-G3) was added to each of the wells containing reaction mixtures to initiate the reaction. The absorbance was measured at 405 nm using a Bio-Rad microplate reader. The IC50 values were calculated using the AAT Bioquest online calculator.

| SMILES | SI (selectivity index) (α-glucosidase) | IC50 (α-glucosidase) [µM] | IC50 (α-amylase) [µM] | melting point [°C] |
| --- | --- | --- | --- | --- |
| COc1ccc(C2CC(c3cc(Br)ccc3O)=Nc3ccccc3S2)cc1 (centres unmarked) [Compound 2e, 4-Bromo-2-((E)-2,3-dihydro-2-(4-methoxyphenyl)benzo[b][1,5]thiazepine-4-yl)phenol] | 0.29 | 15.87 ± 0.13 | 55.14 ± 0.19 | 131 to 136 |
| Oc1ccc(Br)cc1C1=Nc2ccccc2SC(c2ccccc2)C1 (centres unmarked) [Compound 2a, 4-Bromo-2-((E)-2,3-dihydro-2-phenylbenzo[b][1,5]thiazepine-4-yl)phenol] |  | 6.7 ± 0.15 | 20.87 ± 0.08 | 128 to 137 |
| COc1cccc(C2CC(c3cc(Br)ccc3O)=Nc3ccccc3S2)c1 (centres unmarked) [Compound 2d, 4-Bromo-2-((E)-2,3-dihydro-2-(3-methoxyphenyl)benzo[b][1,5]thiazepine-4-yl)phenol] | 0.29 | 13.2 ± 1 | 46.16 ± 0.31 | 161 to 167 |
| CC(C)c1ccc(C2CC(c3cc(Br)ccc3O)=Nc3ccccc3S2)cc1 (centres unmarked) [Compound 2f, 4-Bromo-2-((E)-2,3-dihydro-2-(4-isopropylphenyl)benzo[b][1,5]thiazepine-4-yl)phenol] | 0.67 | 6.54 ± 0.11 | 9.71 ± 0.5 | 126 to 131 |
| Oc1ccc(Br)cc1C1=Nc2ccccc2SC(c2ccc(F)cc2)C1 (centres unmarked) [Compound 2b, 4-Bromo-2-((E)-2,3-dihydro-2-(4-fluorophenyl)benzo[b][1,5]thiazepine-4-yl)phenol] | 1.09 | 17.2 ± 0.07 | 15.85 ± 0.05 | 128 to 134 |
| Oc1ccc(Br)cc1C1=Nc2ccccc2SC(c2ccc(Cl)cc2)C1 (centres unmarked) [Compound 2c, 4-Bromo-2-((E)-2,3-dihydro-2-(4-chlorophenyl)benzo[b][1,5]thiazepine-4-yl)phenol] | 0.12 | 2.69 ± 0.27 | 22.86 ± 0.04 | 167 to 172 |
